From BindingDB's records for doi:10.1021/jm950589q (Ibm Thomas J. Watson Research Center, 1996)

Experiment: Inhibitory concentration against HIV-1 replication by interfering with virus reverse transcriptase

First: CC(C)=CCN1Cc2cc(Cl)cc3[nH]c(=S)n(c23)C[C@@H]1C
Second: CC(C)=CCN1Cc2cc(Cl)cc3[nH]c(=O)n(c23)CC1C (centres undefined)
The IC50 of the first is 4.2-fold lower: 43 nM for the first, 180 nM for the second.

Going from `C=C(C)CN1Cc2cccc3[nH]c(=S)n(c23)CC1C` (centres undefined) to `C=C(C)CN1Cc2cccc3[nH]c(=O)n(c23)CC1C` (centres undefined), the IC50 rises from 26 nM to 34700 nM (1300-fold). The first is the more potent here.

Compared with `CC1Cn2c(=S)[nH]c3cccc(c32)CN1CC1CC1` (centres undefined), `CC1Cn2c(=S)[nH]c3cc(Cl)cc(c32)CN1CC1CC1` (centres undefined) [4-Chloro-7-cyclopropylmethyl-8-methyl-6,7,8,9-tetrahydro-2H-2,7,9a-triaza-benzo[cd]azulene-1-thione] is 1.8-fold lower in IC50: 60 nM for the first, 34 nM for the second.

First: CC(C)=CCN1Cc2cccc3[nH]c(=O)n(c23)CC1C (centres undefined)
Second: CC(C)=CCN1Cc2cccc3[nH]c(=S)n(c23)C[C@@H]1C [(11S)-11-methyl-10-(3-methylbut-2-en-1-yl)-1,3,10-triazatricyclo[6.4.1.0^{4,13}]trideca-4(13),5,7-triene-2-thione]
The IC50 of the first is 34-fold higher: 3320 nM for the first, 97 nM for the second. The second is the more potent here.

Going from `CC(C)=CCN1CCn2c(=O)[nH]c3cc(Cl)cc(c32)C1C` (centres undefined) [4-Chloro-6-methyl-7-(3-methyl-but-2-enyl)-6,7,8,9-tetrahydro-2H-2,7,9a-triaza-benzo[cd]azulen-1-one] to `CC(C)=CCN1CCn2c(=S)[nH]c3cc(Cl)cc(c32)C1C` (centres undefined) [4-Chloro-6-methyl-7-(3-methyl-but-2-enyl)-6,7,8,9-tetrahydro-2H-2,7,9a-triaza-benzo[cd]azulene-1-thione], the IC50 falls from 160 nM to 23 nM (7-fold).

First: CC(C)=CCN1CCn2c(=S)[nH]c3cc(Cl)cc(c32)C1 [4-Chloro-7-(3-methyl-but-2-enyl)-6,7,8,9-tetrahydro-2H-2,7,9a-triaza-benzo[cd]azulene-1-thione]
Second: CC(C)=CCN1CCn2c(=S)[nH]c3ccc(Cl)c(c32)C1 [5-Chloro-7-(3-methyl-but-2-enyl)-6,7,8,9-tetrahydro-2H-2,7,9a-triaza-benzo[cd]azulene-1-thione]
The IC50 of the first is 3.5-fold higher: 160 nM for the first, 46 nM for the second.

Going from `C=C(C)CN1Cc2cc(Cl)cc3[nH]c(=S)n(c23)C(C)C1` (centres undefined) [4-Chloro-9-methyl-7-(2-methyl-allyl)-6,7,8,9-tetrahydro-2H-2,7,9a-triaza-benzo[cd]azulene-1-thione] to `C=C(C)CN1Cc2cccc3[nH]c(=O)n(c23)C(C)C1` (centres undefined) [9-Methyl-7-(2-methyl-allyl)-6,7,8,9-tetrahydro-2H-2,7,9a-triaza-benzo[cd]azulen-1-one], the IC50 rises from 670 nM to 32100 nM (48-fold). The first is the more potent here.

Compared with `CC(C)=CCN1CCn2c(=O)[nH]c3ccc(Cl)c(c32)C1C` (centres undefined) [5-Chloro-6-methyl-7-(3-methyl-but-2-enyl)-6,7,8,9-tetrahydro-2H-2,7,9a-triaza-benzo[cd]azulen-1-one], `CC(C)=CCN1CCn2c(=S)[nH]c3ccc(Cl)c(c32)C1C` (centres undefined) [5-Chloro-6-methyl-7-(3-methyl-but-2-enyl)-6,7,8,9-tetrahydro-2H-2,7,9a-triaza-benzo[cd]azulene-1-thione] is 12-fold lower in IC50: 145 nM for the first, 12 nM for the second. The second is the more potent here.

First: CC(C)=CCN1Cc2c(Cl)ccc3[nH]c(=S)n(c23)C[C@@H]1C [5-Chloro-8-methyl-7-(3-methyl-but-2-enyl)-6,7,8,9-tetrahydro-2H-2,7,9a-triaza-benzo[cd]azulene-1-thione]
Second: CC(C)=CCN1[C@H](C)Cn2c(=S)[nH]c3cccc(c32)[C@H]1C [(6R,8R)-6,8-Dimethyl-7-(3-methyl-but-2-enyl)-6,7,8,9-tetrahydro-2H-2,7,9a-triaza-benzo[cd]azulene-1-thione]
The IC50 of the first is 8.4-fold lower: 5 nM for the first, 42 nM for the second.

First: CC(C)=CCN1CC(C)n2c(=S)[nH]c3cccc(c32)C1C (centres undefined) [6,9-Dimethyl-7-(3-methyl-but-2-enyl)-6,7,8,9-tetrahydro-2H-2,7,9a-triaza-benzo[cd]azulene-1-thione]
Second: CC(C)=CCN1[C@H](C)Cn2c(=S)[nH]c3cccc(c32)[C@@H]1C [(6S,8R)-6,8-Dimethyl-7-(3-methyl-but-2-enyl)-6,7,8,9-tetrahydro-2H-2,7,9a-triaza-benzo[cd]azulene-1-thione]
The IC50 of the first is 22-fold higher: 25800 nM for the first, 1150 nM for the second. The second is the more potent here.

First: CC(C)=CCN1CCn2c(=O)[nH]c3cccc(c32)C1C (centres undefined) [6-Methyl-7-(3-methyl-but-2-enyl)-6,7,8,9-tetrahydro-2H-2,7,9a-triaza-benzo[cd]azulen-1-one]
Second: CC(C)=CCN1CCn2c(=S)[nH]c3cccc(c32)C1C (centres undefined) [6-Methyl-7-(3-methyl-but-2-enyl)-6,7,8,9-tetrahydro-2H-2,7,9a-triaza-benzo[cd]azulene-1-thione]
The IC50 of the first is 160-fold higher: 12100 nM for the first, 78 nM for the second. The second is the more potent here.

Compared with `C=C(C)CN1Cc2cccc3[nH]c(=O)n(c23)C(CCC)C1` (centres undefined) [7-(2-Methyl-allyl)-9-propyl-6,7,8,9-tetrahydro-2H-2,7,9a-triaza-benzo[cd]azulen-1-one], `C=C(C)CN1Cc2cccc3[nH]c(=O)n(c23)C(C(C)C)C1` (centres undefined) [9-Isopropyl-7-(2-methyl-allyl)-6,7,8,9-tetrahydro-2H-2,7,9a-triaza-benzo[cd]azulen-1-one] is 3.8-fold lower in IC50: 48100 nM for the first, 12600 nM for the second.

First: CC1C(C)n2c(=S)[nH]c3cccc(c32)CN1CC1CC1 (centres undefined) [7-Cyclopropylmethyl-8,9-dimethyl-6,7,8,9-tetrahydro-2H-2,7,9a-triaza-benzo[cd]azulene-1-thione]
Second: CC(C)=CCN1Cc2cccc3[nH]c(=S)n(c23)C(C)C1C (centres undefined) [8,9-Dimethyl-7-(3-methyl-but-2-enyl)-6,7,8,9-tetrahydro-2H-2,7,9a-triaza-benzo[cd]azulene-1-thione]
The IC50 of the first is 6-fold higher: 13400 nM for the first, 2220 nM for the second.

Compared with `CC(C)=CCN1Cc2cccc3[nH]c(=O)n(c23)C(C)C1C` (centres undefined) [8,9-Dimethyl-7-(3-methyl-but-2-enyl)-6,7,8,9-tetrahydro-2H-2,7,9a-triaza-benzo[cd]azulen-1-one], `CC(C)=CCN1[C@H](C)Cn2c(=O)[nH]c3cc(Cl)cc(c32)[C@@H]1C` [(6S,8R)-4-Chloro-6,8-dimethyl-7-(3-methyl-but-2-enyl)-6,7,8,9-tetrahydro-2H-2,7,9a-triaza-benzo[cd]azulen-1-one] is 250-fold lower in IC50: 56700 nM for the first, 230 nM for the second.

In the case of `CC(C)=CCN1[C@H](C)Cn2c(=S)[nH]c3cc(Cl)cc(c32)[C@@H]1C` [(6S,8R)-4-Chloro-6,8-dimethyl-7-(3-methyl-but-2-enyl)-6,7,8,9-tetrahydro-2H-2,7,9a-triaza-benzo[cd]azulene-1-thione], the IC50 is reported as 480 nM.
